Test system: KRAS-mutant PDC multicell tumor spheroid viability
Experiment: Anticancer human tumor 521955-158-R2-J5-PDC patient-derived pancreatic carcinoma cell line growth inhibition [KRAS2]
Conditions: for viability, T/C: stronger effect = lower value
In short: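 Combination screen of spheroid viability in tumor-cell co-cultures with endothelial (HUVEC) and mesenchymal stem cell stroma. Each agent was tested in half-log dilutions, topping at clinical Cmax or at 10 microM without a known Cmax.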

[1] = curve of first compound, second compound 0.1 µM
[2] = curve of first compound, second compound 0.316 µM
[3] = curve of first compound, second compound 1 µM
[4] = curve of first compound, second compound 3.16 µM
[5] = curve of first compound, second compound 10 µM
[6] = second compound 0.1 µM, first compound 0.0316 µM
[7] = second compound 0.1 µM, first compound 0.1 µM
[8] = second compound 0.1 µM, first compound 0.316 µM
[9] = second compound 0.1 µM, first compound 1 µM
[10] = second compound 0.1 µM, first compound 3.16 µM
[11] = second compound 0.1 µM, first compound 10 µM
[12] = second compound 0.316 µM, first compound 0.0316 µM
[13] = second compound 0.316 µM, first compound 0.1 µM
[14] = second compound 0.316 µM, first compound 0.316 µM
[15] = second compound 0.316 µM, first compound 1 µM
[16] = second compound 0.316 µM, first compound 3.16 µM
[17] = second compound 0.316 µM, first compound 10 µM
[18] = second compound 1 µM, first compound 0.0316 µM
[19] = second compound 1 µM, first compound 0.1 µM
[20] = second compound 1 µM, first compound 0.316 µM
[21] = second compound 1 µM, first compound 1 µM
[22] = second compound 1 µM, first compound 3.16 µM
[23] = second compound 1 µM, first compound 10 µM
[24] = second compound 3.16 µM, first compound 0.0316 µM
[25] = second compound 3.16 µM, first compound 0.1 µM
[26] = second compound 3.16 µM, first compound 0.316 µM
[27] = second compound 3.16 µM, first compound 1 µM
[28] = second compound 3.16 µM, first compound 3.16 µM
[29] = second compound 3.16 µM, first compound 10 µM
[30] = second compound 10 µM, first compound 0.0316 µM
[31] = second compound 10 µM, first compound 0.1 µM
[32] = second compound 10 µM, first compound 0.316 µM
[33] = second compound 10 µM, first compound 1 µM
[34] = second compound 10 µM, first compound 3.16 µM
[35] = second compound 0.1 µM, first compound 0.00316 µM
[36] = second compound 0.1 µM, first compound 0.01 µM
[37] = second compound 0.316 µM, first compound 0.00316 µM
[38] = second compound 0.316 µM, first compound 0.01 µM
[39] = second compound 1 µM, first compound 0.00316 µM
[40] = second compound 1 µM, first compound 0.01 µM
[41] = second compound 3.16 µM, first compound 0.00316 µM
[42] = second compound 3.16 µM, first compound 0.01 µM
[43] = second compound 10 µM, first compound 0.00316 µM
[44] = second compound 10 µM, first compound 0.01 µM
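Also: viability read after seven days of drug exposure.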

SMILES: O=C(c1cc(Cc2n[nH]c(=O)c3ccccc23)ccc1F)N1CCN(C(=O)C2CC2)CC1 + COc1cc2nc(C)nc(NC(C)c3cc(N)cc(C(F)(F)F)c3)c2cc1OC1CCOC1
- IC50 [1]: > 10000 nM
- IC50 [2]: > 10000 nM
- IC50 [3]: > 10000 nM
- IC50 [4]: > 10000 nM
- IC50 [5]: > 10000 nM
- viability, T/C [6]: 92.5%
- viability, T/C [7]: 71.2%
- viability, T/C [8]: 83.6%
- viability, T/C [9]: 88.9%
- viability, T/C [10]: 75.5%
- viability, T/C [11]: 74.5%
- viability, T/C [12]: 81.2%
- viability, T/C [13]: 66.3%
- viability, T/C [14]: 70.2%
- viability, T/C [15]: 73%
- viability, T/C [16]: 79.6%
- viability, T/C [17]: 58.2%
- viability, T/C [18]: 107%
- viability, T/C [19]: 102%
- viability, T/C [20]: 94.6%
- viability, T/C [21]: 96.3%
- viability, T/C [22]: 92.3%
- viability, T/C [23]: 64.6%
- viability, T/C [24]: 108%
- viability, T/C [25]: 96.6%
- viability, T/C [26]: 97.5%
- viability, T/C [27]: 83.9%
- viability, T/C [28]: 81.1%
- viability, T/C [29]: 51.5%
- viability, T/C [30]: 107%
- viability, T/C [31]: 119%
- viability, T/C [32]: 112%
- viability, T/C [33]: 96.8%
- viability, T/C [34]: 86.8%
- viability, T/C (second compound 10 µM, first compound 10 µM): 65.2%

SMILES: CC(C)n1nc(-c2ccc3oc(N)nc3c2)c2c(N)ncnc21 + COc1cc2nc(C)nc(NC(C)c3cc(N)cc(C(F)(F)F)c3)c2cc1OC1CCOC1
- IC50 [1]: 9.15 nM
- IC50 [2]: 7.73 nM
- IC50 [3]: 6.55 nM
- IC50 [4]: 4.41 nM
- IC50 [5]: 0.453 nM
- viability, T/C (second compound 0.1 µM, first compound 0.000316 µM): 61.5%
- viability, T/C (second compound 0.1 µM, first compound 0.001 µM): 83.8%
- viability, T/C [35]: 64.1%
- viability, T/C [36]: 48.5%
- viability, T/C [6]: 32.6%
- viability, T/C [7]: 26%
- viability, T/C (second compound 0.316 µM, first compound 0.000316 µM): 90.1%
- viability, T/C (second compound 0.316 µM, first compound 0.001 µM): 83.9%
- viability, T/C [37]: 65.4%
- viability, T/C [38]: 44.8%
- viability, T/C [12]: 33.7%
- viability, T/C [13]: 25.6%
- viability, T/C (second compound 1 µM, first compound 0.000316 µM): 81%
- viability, T/C (second compound 1 µM, first compound 0.001 µM): 77.1%
- viability, T/C [39]: 57.1%
- viability, T/C [40]: 46.8%
- viability, T/C [18]: 29.6%
- viability, T/C [19]: 25.1%
- viability, T/C (second compound 3.16 µM, first compound 0.000316 µM): 84.2%
- viability, T/C (second compound 3.16 µM, first compound 0.001 µM): 80.6%
- viability, T/C [41]: 53.7%
- viability, T/C [42]: 35.8%
- viability, T/C [24]: 27.4%
- viability, T/C [25]: 20.2%
- viability, T/C (second compound 10 µM, first compound 0.000316 µM): 56.9%
- viability, T/C (second compound 10 µM, first compound 0.001 µM): 32.4%
- viability, T/C [43]: 34.7%
- viability, T/C [44]: 26.1%
- viability, T/C [30]: 21.6%
- viability, T/C [31]: 19%

SMILES: CC1OCC2(CCN(c3cnc(Sc4ccnc(N)c4Cl)c(N)n3)CC2)C1N (configuration not stated) + C=CC(=O)N1CCN(c2nc(OCC3CCCN3C)nc3c2CCN(c2cccc4cccc(C)c24)C3)CC1CC#N
- IC50 (curve of first compound, second compound 0.0316 µM): > 10000 nM
- IC50 [1]: > 10000 nM
- IC50 [2]: > 10000 nM
- IC50 [3]: > 10000 nM
- IC50 [4]: < 31.6 nM
- viability, T/C (second compound 0.0316 µM, first compound 0.0316 µM): 92.9%
- viability, T/C (second compound 0.0316 µM, first compound 0.1 µM): 79%
- viability, T/C (second compound 0.0316 µM, first compound 0.316 µM): 75.2%
- viability, T/C (second compound 0.0316 µM, first compound 1 µM): 63.5%
- viability, T/C (second compound 0.0316 µM, first compound 3.16 µM): 60%
- viability, T/C (second compound 0.0316 µM, first compound 10 µM): 70.8%
- viability, T/C [6]: 99.8%
- viability, T/C [7]: 88.1%
- viability, T/C [8]: 74.5%
- viability, T/C [9]: 68.6%
- viability, T/C [10]: 63.3%
- viability, T/C [11]: 66.6%
- viability, T/C [12]: 84.5%
- viability, T/C [13]: 84.4%
- viability, T/C [14]: 65.4%
- viability, T/C [15]: 59.2%
- viability, T/C [16]: 65.9%
- viability, T/C [17]: 58.4%
- viability, T/C [18]: 84.8%
- viability, T/C [19]: 70.7%
- viability, T/C [20]: 59.2%
- viability, T/C [21]: 56.9%
- viability, T/C [22]: 57.4%
- viability, T/C [23]: 55.5%
- viability, T/C [24]: 15.1%
- viability, T/C [25]: 13.1%
- viability, T/C [26]: 15.4%
- viability, T/C [27]: 13%
- viability, T/C [28]: 5.45%
- viability, T/C [29]: 5.43%

SMILES: CC(=O)Nc1cccc(-n2c(=O)n(C3CC3)c(=O)c3c(Nc4ccc(I)cc4F)n(C)c(=O)c(C)c32)c1
- viability, T/C (compound 0.0001 µM): 77.7% [middle of 5 runs]
- viability, T/C (compound 0.000316 µM): 47.2% [middle of 5 runs]
- viability, T/C (compound 0.001 µM): 36.5% [middle of 5 runs]
- viability, T/C (compound 0.00316 µM): 29.1% [middle of 5 runs]
- viability, T/C (compound 0.01 µM): 24.1% [middle of 5 runs]
- viability, T/C (compound 0.0316 µM): 17.4% [middle of 4 runs]
- IC50 (curve of compound): 0.337 nM [middle of 5 runs]

SMILES: COc1cc2nccc(Oc3ccc(NC(=O)C4(C(=O)Nc5ccc(F)cc5)CC4)cc3)c2cc1OC
- viability, T/C (compound 0.0316 µM): 99.7% [middle of 5 runs]
- viability, T/C (compound 0.1 µM): 98.8% [middle of 4 runs]
- viability, T/C (compound 0.316 µM): 103% [middle of 5 runs]
- viability, T/C (compound 1 µM): 109% [middle of 5 runs]
- viability, T/C (compound 10 µM): 39.7% [middle of 5 runs]

SMILES: CCN1CCN(Cc2ccc(Nc3ncc(F)c(-c4cc(F)c5nc(C)n(C(C)C)c5c4)n3)nc2)CC1 + CNCc1ccccc1-c1csc(C(C)Nc2nc(C)nc3cc(OC)c(OC)cc23)c1
- IC50 [1]: > 1000 nM
- IC50 [2]: > 1000 nM
- IC50 [3]: 627 nM
- IC50 [4]: < 3.16 nM
- IC50 [5]: < 3.16 nM
- viability, T/C [35]: 107%
- viability, T/C [36]: 97.5%
- viability, T/C [6]: 94.4%
- viability, T/C [7]: 89.5%
- viability, T/C [8]: 108%
- viability, T/C [9]: 94.9%
- viability, T/C [37]: 120%
- viability, T/C [38]: 108%
- viability, T/C [12]: 89.6%
- viability, T/C [13]: 107%
- viability, T/C [14]: 103%
- viability, T/C [15]: 93.4%
- viability, T/C [39]: 116%
- viability, T/C [40]: 111%
- viability, T/C [18]: 117%
- viability, T/C [19]: 95.3%
- viability, T/C [20]: 119%
- viability, T/C [21]: 7.8%
- viability, T/C [41]: 2.02%
- viability, T/C [42]: 0.33%
- viability, T/C [24]: 0.25%
- viability, T/C [25]: 0.25%
- viability, T/C [26]: 0.17%
- viability, T/C [27]: 0.6%
- viability, T/C [43]: 0.21%
- viability, T/C [44]: 0.26%
- viability, T/C [30]: 0.29%
- viability, T/C [31]: 0.24%
- viability, T/C [32]: 0.21%
- viability, T/C [33]: 0.26%

SMILES: CC(=O)OC12COC1CC(O)C1(C)C(=O)C(O)C3=C(C)C(OC(=O)C(O)C(NC(=O)OC(C)(C)C)c4ccccc4)CC(O)(C(OC(=O)c4ccccc4)C21)C3(C)C (configuration not stated) + CC1OCC2(CCN(c3cnc(Sc4ccnc(N)c4Cl)c(N)n3)CC2)C1N
- IC50 [1]: < 10 nM
- IC50 [2]: < 10 nM
- IC50 [3]: < 10 nM
- IC50 [4]: < 10 nM
- IC50 [5]: < 10 nM
- viability, T/C [36]: 26.4%
- viability, T/C [6]: 15.3%
- viability, T/C [7]: 11.9%
- viability, T/C [8]: 14.5%
- viability, T/C [9]: 16.1%
- viability, T/C [10]: 19.7%
- viability, T/C [38]: 25.1%
- viability, T/C [12]: 15.3%
- viability, T/C [13]: 14%
- viability, T/C [14]: 11.1%
- viability, T/C [15]: 17.7%
- viability, T/C [16]: 18.2%
- viability, T/C [40]: 19.7%
- viability, T/C [18]: 13%
- viability, T/C [19]: 11.2%
- viability, T/C [20]: 13.1%
- viability, T/C [21]: 15.6%
- viability, T/C [22]: 20.7%
- viability, T/C [42]: 21.2%
- viability, T/C [24]: 15.9%
- viability, T/C [25]: 14.5%
- viability, T/C [26]: 12.7%
- viability, T/C [27]: 19.5%
- viability, T/C [28]: 23.2%
- viability, T/C [44]: 22.1%
- viability, T/C [30]: 15.9%
- viability, T/C [31]: 15.2%
- viability, T/C [32]: 17.3%
- viability, T/C [33]: 14.6%
- viability, T/C [34]: 22.3%

Reference: PubChem BioAssay AID1963871 (Molecular Pharmacology Branch, DTP, NCI, 2024)
